Data: ChEMBL document CHEMBL6114991, “Design, synthesis, and biological evaluation of novel quinoline carboxylic acid based styryl/alkyne hybrid molecule as a potent anti-adipogenic and antidyslipidemic agent via activation of Wnt/β-catenin pathway” (Eur J Med Chem, 2025)
Activity calls are given as the source filed them. The calls are words filed in the database; no cut-off is given here.

Experiments:
3T3-L1 [1] = assay: Cytotoxicity against mouse 3T3-L1 cells assessed as cell viability at 20 uM incubated for 48 hrs by MTT assay; type: toxicity, cell-based; conditions: 3t3-l1, 48 h
3T3-L1 [2] = assay: Anti-adipogenic activity in mouse 3T3-L1 cells at 20 uM relative to control; type: functional
3T3-L1 [3] = assay: Anti-adipogenic activity in mouse 3T3-L1 cells assessed as suppression of adipogenesis at 20 uM measured for 72 hrs by oil red O staining based analysis; type: functional
3T3-L1 [4] = assay: Anti-adipogenic activity in MDI-induced mouse 3T3-L1 cells assessed as suppression of adipogenesis at 0.3 uM by oil red O staining based analysis; type: functional, cell-based; conditions: time 72.0 hrs
3T3-L1 [5] = assay: Cytotoxicity against mouse 3T3-L1 cells assessed as cell viability at 30 uM incubated for 48 hrs by MTT assay; type: toxicity, cell-based; conditions: 3t3-l1, 48 h
3T3-L1 [6] = assay: Anti-adipogenic activity in mouse 3T3-L1 cells assessed as suppression of adipogenesis at 30 uM measured for 72 hrs by oil red O staining based analysis; type: functional, cell-based
3T3-L1 [7] = assay: Anti-adipogenic activity in mouse 3T3-L1 cells assessed as reduction in lipid accumulation at 10 uM by microscopic analysis; type: functional, cell-based

In the case of `Cc1cccc(C#Cc2ccc(-c3cc(C(=O)O)c4ccccc4n3)cc2)c1`, the Activity (3T3-L1 [1]) is reported as “Toxic” and the Activity (3T3-L1 [2]; time 72 hrs) is reported as 68%.

In the case of `O=C(O)c1ccc(/C=C/c2ccc(-c3cc(C(=O)O)c4ccccc4n3)cc2)cc1`, the Activity (3T3-L1 [1]) is reported as “Toxic” and the Activity (3T3-L1 [2]; time 72.0 hrs) is reported as “inactive”.

In the case of `CC(C)(C)c1ccc(/C=C/c2ccc(-c3cc(C(=O)O)c4ccccc4n3)cc2)cc1`, the Activity (3T3-L1 [3]) is reported as 70%, the Activity (3T3-L1 [1]) is reported as “Non-toxic” and the Activity (3T3-L1 [2]; time 72 hrs) is reported as 67%.

For `Cc1ccc(/C=C/c2ccc(-c3cc(C(=O)O)c4cc(OC(F)(F)F)ccc4n3)cc2)cc1`, the Activity (3T3-L1 [2]; time 72.0 hrs) was “inactive”.

With `CCCCCOC(=O)c1cc(-c2ccc(/C=C/c3ccc(C)cc3)cc2)nc2ccc(F)cc12` the Activity (3T3-L1 [1]) was “Toxic” and the Activity (3T3-L1 [2]; time 72.0 hrs) was “inactive”.

`Cc1ccc(C#Cc2ccc(-c3cc(C(=O)O)c4ccccc4n3)cc2)cc1` showed an Activity (3T3-L1 [2]; time 72 hrs) of 74%.

`O=C(O)c1cc(-c2ccc(/C=C/c3ccccn3)cc2)nc2ccccc12` was tested, and the Activity (3T3-L1 [2]; time 72.0 hrs) was “inactive”.

In the case of `COc1ccc2nc(-c3ccc(/C=C/c4ccc(C)cc4)cc3)cc(C(=O)O)c2c1`, the Activity (3T3-L1 [3]) is reported as 70%, the Activity (3T3-L1 [1]) is reported as “Non-toxic” and the Activity (3T3-L1 [2]; time 72.0 hrs) is reported as “inactive”.

For `COC(=O)c1cc(-c2ccc(/C=C/c3ccc(C)cc3)cc2)nc2ccc(F)cc12`, the Activity (3T3-L1 [1]) was “Toxic” and the Activity (3T3-L1 [2]; time 72.0 hrs) was “inactive”.

In the case of `O=C(O)c1cc(-c2ccc(/C=C/c3ccccc3)cc2)nc2ccccc12`, the Activity (3T3-L1 [2]; time 72.0 hrs) is reported as “inactive”.

In the case of `CCCOC(=O)c1cc(-c2ccc(/C=C/c3ccc(C)cc3)cc2)nc2ccc(F)cc12`, the Activity (3T3-L1 [1]) is reported as “Toxic” and the Activity (3T3-L1 [2]; time 72.0 hrs) is reported as “inactive”.

For `Cc1ccc(/C=C/c2ccc(-c3cc(C(=O)O)c4cc(C)ccc4n3)cc2)cc1`, the Activity (3T3-L1 [2]; time 72.0 hrs) was “inactive”.

For `O=C(O)c1cc(-c2ccc(/C=C/c3ccc(Cl)cc3)cc2)nc2ccccc12`, the Activity (3T3-L1 [2]; time 72.0 hrs) was “inactive”.

In the case of `Cc1ccc(/C=C/c2ccc(-c3cc(C(=O)O)c4ccccc4n3)cc2)cc1`, the Activity (3T3-L1 [4]) is reported as “inactive”, the Activity (3T3-L1 [5]) is reported as “Toxic” and the Activity (3T3-L1 [3]) is reported as 70%. The Activity (3T3-L1 [6]) was “Active”, the Activity (3T3-L1 [1]) was “Non-toxic” and the Activity (3T3-L1 [2]; time 72 hrs) was 68%.

In the case of `O=C(O)c1cc(-c2ccc(C#Cc3ccccc3)cc2)nc2ccccc12`, the Activity (3T3-L1 [2]; time 72.0 hrs) is reported as “inactive”.

In the case of `CC(C)(C)c1ccc(C#Cc2ccc(-c3cc(C(=O)O)c4ccccc4n3)cc2)cc1`, the Activity (3T3-L1 [4]) is reported as “Active”, the Activity (3T3-L1 [5]) is reported as “Toxic” and the Activity (3T3-L1 [3]) is reported as 70%. The Activity (3T3-L1 [1]) was “Non-toxic” and the Activity (3T3-L1 [2]; time 72 hrs) was 69%.

With `CCOC(=O)c1cc(-c2ccc(/C=C/c3ccc(C)cc3)cc2)nc2ccc(F)cc12` the Activity (3T3-L1 [1]) was “Toxic” and the Activity (3T3-L1 [2]; time 72.0 hrs) was “inactive”.

`Cc1ccc(/C=C/c2ccc(-c3cc(C(=O)O)c4cc(C)cc(Cl)c4n3)cc2)cc1` was tested, and the Activity (3T3-L1 [2]; time 72.0 hrs) was “inactive”.

`Cc1ccc(/C=C/c2ccc(-c3cc(C(=O)O)c4cc(Cl)ccc4n3)cc2)cc1` was tested, and the Activity (3T3-L1 [1]) was “Toxic” and the Activity (3T3-L1 [2]; time 72 hrs) was 76%.

With `Cc1ccc(/C=C/c2ccc(-c3cc(C(=O)OC(C)C)c4cc(F)ccc4n3)cc2)cc1` the Activity (3T3-L1 [1]) was “Toxic” and the Activity (3T3-L1 [2]; time 72.0 hrs) was “inactive”.

For `O=C(O)c1cc(-c2ccc(/C=C/c3ccc4ccccc4c3)cc2)nc2ccccc12`, the Activity (3T3-L1 [2]; time 72.0 hrs) was “inactive”.

In the case of `CCCCCCOC(=O)c1cc(-c2ccc(/C=C/c3ccc(C)cc3)cc2)nc2ccc(F)cc12`, the Activity (3T3-L1 [1]) is reported as “Toxic” and the Activity (3T3-L1 [2]; time 72.0 hrs) is reported as “inactive”.

In the case of `CCCCOC(=O)c1cc(-c2ccc(/C=C/c3ccc(C)cc3)cc2)nc2ccc(F)cc12`, the Activity (3T3-L1 [1]) is reported as “Toxic” and the Activity (3T3-L1 [2]; time 72.0 hrs) is reported as “inactive”.

In the case of `COc1ccc(C#Cc2ccc(-c3cc(C(=O)O)c4ccccc4n3)cc2)cc1`, the Activity (3T3-L1 [1]) is reported as “Toxic” and the Activity (3T3-L1 [2]; time 72 hrs) is reported as 69%.

In the case of `CCCCCCCCOC(=O)c1cc(-c2ccc(/C=C/c3ccc(C)cc3)cc2)nc2ccc(F)cc12`, the Activity (3T3-L1 [1]) is reported as “Toxic” and the Activity (3T3-L1 [2]; time 72.0 hrs) is reported as “inactive”.

With `O=C(O)c1cc(-c2ccc(/C=C/c3ccncc3)cc2)nc2ccccc12` the Activity (3T3-L1 [4]) was “Active”, the Activity (3T3-L1 [5]) was “Toxic” and the Activity (3T3-L1 [2]; time 72.0 hrs) was “inactive”.

`Cc1cc([N+](=O)[O-])ccc1NS(=O)(=O)c1cc(Cl)ccc1Cl` was tested, and the Activity (3T3-L1 [7]) was “Active”.

With `O=C(O)c1cc(-c2ccc(C#Cc3ccc(F)cc3)cc2)nc2ccccc12` the Activity (3T3-L1 [1]) was “Toxic” and the Activity (3T3-L1 [2]; time 72.0 hrs) was “inactive”.

With `Cc1ccc(/C=C/c2ccc(-c3cc(C(=O)O)c4cccc(Cl)c4n3)cc2)cc1` the Activity (3T3-L1 [2]; time 72.0 hrs) was “inactive”.
